According to US20180289702A1, “LPA LEVEL REDUCTION FOR TREATING CENTRAL NERVOUS SYSTEM DISORDERS” (priority 2015, published 2018):

Tests used:
autotaxin = autotaxin (Homo sapiens, UniProt Q13822); details: Gierse et al., 2010; cited from earlier work
[1] = PF8380 concentration in serum and cerebrospinal fluid by mass spectrometry; assay type: in vivo, mice
Experimental: (§1) Animals were treated using the in-vivo potent autotaxin inhibitor PF 8380 (Gierse et al., 2010). Animals received a single i.p. injection 3 hours prior to PPI.
Nanoscale UPLC separation was performed with a nanoAcquity UPLC system (Waters Corporation) equipped with a PepSwift Monolithic PS-DVB, 200 μm×5 cm analytical column (Thermo Scientific Dionex). For analysis, samples (300 nL) were directly injected onto the analytical column. Mobile phase A was water containing 0.1% v/v formic acid, while mobile phase B was ACN containing 0.1% v/v formic acid. Samples were separated at 55° C. with a gradient of 1-35% mobile phase B over 20 min at a flow rate of 800 nL/min. The column was rinsed for 7 min with 99% mobile phase B, followed by a re-equilibration step at initial conditions resulting in total analysis times of 40 min.
Mass spectrometric analysis of PF-8380 was performed in positive mode ESI using a Synapt G2-S HDMS mass spectrometer (Waters Corporation). Samples were analyzed using a targeted MS-method isolating the singly charged precursor of PF-8380. […] All samples and references were analyzed in three technical replicates.
Raw data were analyzed manually using MassLynx V4.1 Software (Waters Corporation). Extracted ion chromatograms of fragment ions at m/z 301 were used for quantitative analysis calculating the area under the curve. […]

PRG1−/− mice = experiment: Morris water maze; assay type: in vivo; details: untreated and PF8380-treated PRG1−/− mice, during training days
Experimental: For MWM the escape latency, swim speed, path length, and trajectory of swimming were recorded for each mouse. First, mice were trained for 5 days in “visible platform” task, than for 6 days in “hidden platform” task (spatial training), followed by a “probe trial”, which was repeated for 4 times. Mice received daily 4 trials for a maximum of 90 s with an intertrial interval of 5 min. The swim velocity (mean and max) and the immobility time (time spend not searching) were measured.

PRG-1+/− mice [2] = experiment: MCAO stroke model in PRG-1+/− mice; assay type: in vivo
Experimental: (§2) For stroke experiments, mice were anesthetized and occlusion of the medial cerebral artery (MCAO) was performed for 30 min (assessment after 3 days) or for 1 h (assessment after 1day) by introduction of an intraluminal filament as reported (Ploen et al., 2014). […] After 1 h or after 30 min of MCAO, respectively, mice recovered and were perfused 24 hours (1 h MCAO) or 72 hours (30 min MCAO) later. Brains were extracted, snap frozen and cryosectioned using a cryotome. Mounted brain slices were Nissl-Stained which allowed to measure infarct area and to calculate total infarct volume per animal. All measurements were performed in a blinded fashion. Data was assessed for normality and statistical analysis was performed using an one-tailed t-test.

PRG-1R346T+/− animals = experiment: PPI in PRG-1R346T+/− knock-in mice; assay type: in vivo; details: monoallelic PRG-1R346T+/− animals
Experimental: In order to investigate whether the described human mutation indeed results in a endophenotype for psychiatric disorders, the inventors produced an knock-in mouse line where the PRG-1^R346T mutated gene was introduced in place of the PRG-1 wild-type gene. Since only monoallelic PRG-1^R346T mutation carriers were detected, PRG-1^R346T+/− animals were used for the study, which correspond to the human in-vivo situation.
Animals received a single i.p. injection 3 hours prior to PPI.

PRG-1+/− mice [3] = experiment: pre-pulse inhibition (PPI) of the startle response in PRG-1+/− mice; assay type: in vivo; details: i.p. 3 hours prior to PPI, level not different to wt
Experimental: as §1

[4] = tested on: MCAO mouse model of stroke; experiment: medial cerebral artery occlusion (MCAO) mouse model of stroke; assay type: in vivo, mice; details: 30 mg/kg i.p. 3 hours prior to MCAO
Experimental: as §2

PRG-1−/− neurons = experiment: spontaneous postsynaptic currents (sPSC) with PF8380; assay type: cell-based, mice; details: 1 μm
PRG-1 Ko mice = experiment: mEPSC recordings with PF8380, PRG-1 Ko; assay type: cell-based; details: 1 μM

## O=C(CCN1CCN(C(=O)OCc2cc(Cl)cc(Cl)c2)CC1)c1ccc2[nH]c(=O)oc2c1 [PF8380, 4-[3-(2,3-Dihydro-2-oxo-6-benzoxazolyl)-3-oxopropyl]-1-piperazinecarboxylic acid (3,5-dichlorophenyl)methyl ester]
autotaxin
  potency as inhibitor of the LPA-synthetizing enzyme autotaxin: nanomolar potency
[1]; in-vivo application 30 mg/KG/BW
  concentrations in the serum: robust concentrations
[1]; mouse, cerebrospinal fluid, ip, 30 mg/KG/BW, single i.p. injection, 3 hours after injection
  concentration at 3 h: ≤ 420 nM
PRG1−/− mice
  escape latency in the Morris-Water-Maze: did not change
PRG-1+/− mice [2]; 30 min MCAO measured 3 d after stroke
  infarct volume: significantly decreased
PRG-1+/− mice [2]; 3 h, 24 h, 48 h and 72 h post MCAO
  outcome in modified Neurologic Severity Score: significantly improves
PRG-1+/− mice [2]; 24 h up to 72 h post MCAO
  long-term sensorimotor dysfunction, corner test: significantly improved
PRG-1R346T+/− animals
  Pre Pulse Inhibition (PPI): rescue the decreased PPI to WT values
PRG-1+/− mice [3]
  PPI-deficit: significantly rescued
[4]; after 1 day (1 h MCAO)
  infarct size: significantly reduced
[4]; after 3 days (30 min MCAO)
  infarct size: significantly reduced
PRG-1−/− neurons
  sPSC amplitude: not affecting
  spontaneous postsynaptic currents (sPSC): significantly reduced
PRG-1 Ko mice
  mEPSC amplitude: not influencing
  mEPSC frequency: significantly reduced
